Measurements reported in patent US20120088279A1, “ALGAL LIPID PRODUCTION” (Phycal, Inc., priority 2009, published 2012).

Tested on: Nannochloropsis sp.
Assay: Pulsed chlorate stress with non-destructive lipid extraction of algae culture
Format: cell-based
Settings: chlorate stress 18 hours under nutrient-replete conditions, repeated cycles, compared to identical system with the cycle carried out only once
From the text: Nannochloropsis sp., a unicellular alga capable of producing large amounts of triacylglycerides, can be grown in f/2 medium with 1/3rd strength Instant Ocean under indoor lighting in 800 L raceway systems either kept moving with a submerged pump or paddlewheel. The algae are first grown under normal, nutrient replete conditions. Upon achieving a set concentration in culture sufficient for economical extraction (e.g., 1.0 g/L), an amount of chlorate sufficient to block nitrogen uptake by the Nannochloropsis is added. The Nannochloropsis culture is then allowed to grow under these conditions of nutrient assimilation inhibition for 18 hours. Twenty five percent of the algae culture is then removed and subjected to a non-destructive extraction process, while ammonia is added to the remaining in an amount sufficient to renew normal nitrogen uptake.
The removed portion of the culture is then mixed with dodecane or undecane or a mixture of the two for 15 minutes, during which sonication is applied for 2 seconds at 40 kHz. The mixture is partitioned with the upper solvent level removed by decanting, and the lower aqueous layer is then returned to the original algae culture, in which non-stressed growth has resumed as a result of the addition of ammonia. […]

## [O-][Cl+2]([O-])O [chlorate]
  levels of lipid obtained during subsequent cycles: higher levels of lipid
